As a reminder, the melting point is the temperature, or range, at which the solid turns liquid.

Consider 14 compounds from US6858638B2, “Substituted indazoles, compositions containing them, method of production and use” (Aventis Pharma S.A., priority 2002, dated 2005).

Each structure is given as a SMILES string.

One series concerns c-Src protein. Nature of the series: Src kinase phosphorylation of biotinylated cdc2 substrate, fluorescence (DELFIA). The class given is biochemical, human. The method, then:
The inhibition of the Src kinase is evaluated by measuring the phosphorylation of the biotinylated cdc2 substrate (Pierce) detected by fluorescence (DELFIA) using an antiphosphotyrosine antibody labeled with Europium, in 96-well Wallac plates. The c-Src protein used is a recombinant human protein produced in Baculovirus, comprising the SH3 and SH2 and the catalytic domains. The enzyme, the substrate and the various concentrations of test compounds are placed in the well in a 50 mM Tris buffer containing 10 mM MgCl2. The reaction is initiated by adding 10 μM of ATP. After incubation for 60 minutes at 30° C., the reaction is stopped by adding 75 mM EDTA. 50 μl are taken from each well and transferred into a plate coated with streptavidin. After incubation for 30 minutes at 25° C., the wells are washed with a washing buffer (Wallac) and then the antiphosphotyrosine antibody (PY20-Europium [Perkin Elmer]) is added in a volume of 75 μl. The plate is incubated for 30 minutes at 25° C. and then an “Enhancer” solution (Wallac) is added before reading the fluorescence using a fluorimeter (Perkin Elmer). The background noise is evaluated in triplicate in wells containing the substrate and the antibody in the absence of enzyme. The activity of the enzyme is measured (in triplicate) in the wells containing all the reagents in the absence of compound. The inhibition of the Src activity is expressed as percentage inhibition of the activity of the control determined in the absence of compound. The compound PP2 (Calbiochem) is included at various concentrations in each experiment as an inhibition control.

Another series addresses T1, human KDR enzyme (Homo sapiens, UniProt P35968).
T1 construct: The cytoplasmic domain of the human KDR enzyme; GST; made in house; host or cells: SF21 insect cells (baculovirus)
Put plainly: KDR substrate (PLCγ) phosphorylation, scintillation assay. The class given is biochemical. The conditions noted are these: 10 μM; read-out: KDR % inhib at 10 μM. In short, it runs like this: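 GST-fused human KDR cytoplasmic domain from SF21 cells (about 60% pure, 100 ng) phosphorylated 2 μg of GST-PLCγ SH2-SH3 fragment. The trigger solution held γ33P-ATP with 2 μM cold ATP, in MOPS buffer pH 7.2 with Mg2+, Mn2+, vanadate and NaF. Reactions ran 1 h at 37 °C, were stopped with EDTA and counted by scintillation; results are % inhibition versus the no-compound control.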

For a further series, the target named is T2, human FAK (Homo sapiens, UniProt Q05397).
T2 construct: The complete cDNA of human FAK; made in house; host or cells: baculovirus expression system (vector pFastBac HTc)
T2 sequence (Q05397 whole entry): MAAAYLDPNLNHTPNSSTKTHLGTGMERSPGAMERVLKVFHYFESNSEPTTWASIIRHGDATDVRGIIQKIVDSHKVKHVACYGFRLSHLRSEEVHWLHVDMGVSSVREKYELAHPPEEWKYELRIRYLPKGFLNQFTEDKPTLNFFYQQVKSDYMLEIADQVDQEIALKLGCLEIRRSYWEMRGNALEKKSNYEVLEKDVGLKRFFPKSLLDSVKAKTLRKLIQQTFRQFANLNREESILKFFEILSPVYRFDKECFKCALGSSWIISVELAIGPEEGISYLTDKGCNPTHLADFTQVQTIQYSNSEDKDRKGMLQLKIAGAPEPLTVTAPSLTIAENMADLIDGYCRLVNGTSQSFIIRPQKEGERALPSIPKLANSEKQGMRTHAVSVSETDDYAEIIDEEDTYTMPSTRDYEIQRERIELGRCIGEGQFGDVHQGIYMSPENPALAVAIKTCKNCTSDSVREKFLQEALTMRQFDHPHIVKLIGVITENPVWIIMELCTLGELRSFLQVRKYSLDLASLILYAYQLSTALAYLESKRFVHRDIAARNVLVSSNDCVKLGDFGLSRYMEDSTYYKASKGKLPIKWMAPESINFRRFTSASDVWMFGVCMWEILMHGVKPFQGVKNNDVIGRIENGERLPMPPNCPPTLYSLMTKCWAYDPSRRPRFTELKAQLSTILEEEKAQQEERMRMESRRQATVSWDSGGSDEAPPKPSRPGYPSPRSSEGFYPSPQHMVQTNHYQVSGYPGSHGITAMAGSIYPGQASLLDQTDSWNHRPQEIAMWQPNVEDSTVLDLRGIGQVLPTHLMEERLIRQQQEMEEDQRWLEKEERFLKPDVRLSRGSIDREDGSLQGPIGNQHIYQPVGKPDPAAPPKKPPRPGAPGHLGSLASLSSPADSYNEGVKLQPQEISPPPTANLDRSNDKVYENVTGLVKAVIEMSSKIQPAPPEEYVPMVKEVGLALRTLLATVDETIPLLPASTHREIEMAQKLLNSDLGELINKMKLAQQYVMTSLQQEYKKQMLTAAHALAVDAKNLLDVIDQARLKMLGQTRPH
Put plainly: FAK autophosphorylation inhibition, time resolved fluorescence (HTRF) assay. It counts as biochemical. Conditions: 10 μM (values without asterisk); read-out: FAK % inhib at 10 μM. In short, it runs like this: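 His-tagged full-length human FAK from baculovirus (6.6 µg/ml) self-phosphorylates with 15 µM ATP in HEPES pH 7.2, MgCl2, vanadate, 1 h at 37 °C. HTRF detection (Eu-anti-phosphotyrosine / XL665-anti-His), 665/620 nm ratio; % inhibition vs untreated control, duplicate mean.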

The target of another series is T3, Aurora2 kinase (Homo sapiens, UniProt O14965).
T3 construct: A complete recombinant Aurora2 enzyme; His tag (N); made in house; host or cells: E. coli
T3 sequence (O14965 1-403): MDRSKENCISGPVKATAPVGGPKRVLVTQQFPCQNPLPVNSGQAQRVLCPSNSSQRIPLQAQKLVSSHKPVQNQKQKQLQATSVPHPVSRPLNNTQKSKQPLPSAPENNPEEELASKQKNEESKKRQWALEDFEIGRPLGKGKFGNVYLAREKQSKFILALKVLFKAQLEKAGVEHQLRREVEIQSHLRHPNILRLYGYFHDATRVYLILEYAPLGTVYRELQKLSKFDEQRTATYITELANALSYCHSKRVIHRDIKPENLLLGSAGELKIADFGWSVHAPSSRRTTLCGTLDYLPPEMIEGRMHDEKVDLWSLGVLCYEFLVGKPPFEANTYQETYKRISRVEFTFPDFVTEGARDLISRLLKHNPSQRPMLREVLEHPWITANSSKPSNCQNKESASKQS
Nature of the series: Aurora2 kinase radioactivity scintillation assay using nickel chelate (NuMA substrate). It counts as biochemical. The conditions noted are these: 10 μM; read-out: Aurora2 % inhib at 10 μM. An outline of the steps: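 His-tagged full-length Aurora2 (0.02 μM, E. coli) phosphorylating His-tagged NuMA C-terminal fragment (0.5 μM) with 1 μM ATP plus [33P]-ATP, 30 min at 37 °C, pH 7.5 Tris buffer with MgCl2. Nickel-chelate scintillation read; percent inhibition versus no-compound control.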

A further series relates to HCT-15 cells. The conditions noted are these: concentration of 100 μM; cited from earlier work.
For another series, the system named is NCI-H460 cells. The conditions noted are these: concentration of 100 μM; cited from earlier work.

T1 sequence (P35968 786-1356 limits assumed): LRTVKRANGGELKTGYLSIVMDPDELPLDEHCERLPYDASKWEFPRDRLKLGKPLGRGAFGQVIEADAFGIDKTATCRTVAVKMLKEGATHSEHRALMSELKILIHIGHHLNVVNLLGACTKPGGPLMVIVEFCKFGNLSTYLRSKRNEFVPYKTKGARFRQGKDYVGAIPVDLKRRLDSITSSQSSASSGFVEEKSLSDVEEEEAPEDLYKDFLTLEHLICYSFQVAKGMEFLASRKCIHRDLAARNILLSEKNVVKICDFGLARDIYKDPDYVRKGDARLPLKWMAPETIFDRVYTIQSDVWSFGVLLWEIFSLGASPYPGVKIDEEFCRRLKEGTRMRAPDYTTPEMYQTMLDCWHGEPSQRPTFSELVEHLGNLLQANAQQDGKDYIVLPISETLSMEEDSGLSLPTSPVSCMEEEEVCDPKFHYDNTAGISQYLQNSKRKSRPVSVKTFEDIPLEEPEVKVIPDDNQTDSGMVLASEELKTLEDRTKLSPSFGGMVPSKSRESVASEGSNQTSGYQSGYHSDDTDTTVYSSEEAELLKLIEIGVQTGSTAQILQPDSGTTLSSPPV

In turn, `CS(=O)(=O)c1ccccc1S(=O)(=O)Nc1ccc2[nH]nc(-c3csc4ccccc34)c2c1` [Example 64, N-(3-Benzo[b]thiophen-3-yl-1H-indazol-5-yl)-2-methylsulfonylbenzenesulfonamide] yielded a melting point of 235 °C. Moreover, the “SRC % inhib at 10 μM” value in the series on c-Src protein came to 86%. In addition, on human KDR enzyme, the inhibition at 10 µM came to 41%. Besides, the inhibition at 10 µM on human FAK is 30%. For the same compound, the inhibition at 10 µM on Aurora2 kinase was 72%.

`CS(=O)(=O)c1ccccc1S(=O)(=O)Nc1ccc2[nH]nc(-c3ccc([N+](=O)[O-])cc3)c2c1` [Example 66, N-[3-(4-Nitrophenyl)-1H-indazol-5-yl]-2-methylsulfonylbenzenesulfonamide]: in the series with c-Src protein, the “SRC % inhib at 10 μM” value amounted to 90%. Moreover, the inhibition at 10 µM at human KDR enzyme is 20%; on human FAK, 75%; at Aurora2 kinase it was 100%.

In turn, `CS(=O)(=O)c1ccccc1S(=O)(=O)Nc1ccc2[nH]nc(-c3cccc4ccccc34)c2c1` [Example 72, 2-Methylsulfonyl-N-(3-naphthalen-1-yl-1H-indazol-5-yl)-benzenesulfonamide] yielded a melting point of 186 °C. The “SRC % inhib at 10 μM” value in the series on c-Src protein came to 77%. Moreover, the inhibition at 10 µM at human KDR enzyme is 41%. Moreover, the inhibition at 10 µM at human FAK turned out to be 21%. Further, on Aurora2 kinase, the inhibition at 10 µM came out at 78%.

On to `CS(=O)(=O)c1ccccc1S(=O)(=O)Nc1ccc2[nH]nc(-c3ccc4ccccc4c3)c2c1` [Example 73, 2-Methylsulfonyl-N-(3-naphthalen-2-yl-1H-indazol-5-yl)-benzenesulfonamide], for which the melting point is 221 °C. The “SRC % inhib at 10 μM” value with c-Src protein worked out at 40%. The inhibition at 10 µM on human KDR enzyme was 38%. Also, the inhibition at 10 µM on human FAK was 87%. Moreover, on Aurora2 kinase, the inhibition at 10 µM turned out to be 100%.

`O=S(=O)(Nc1ccc2[nH]nc(-c3ccccc3)c2c1)c1cccnc1` [Example 96, N-(3-Phenyl-1H-indazol-5-yl)pyridine-3-sulfonamide]: the melting point was determined as 225 °C. For the same compound, the “SRC % inhib at 10 μM” value in the series with c-Src protein turned out to be 83%. For the same compound, the inhibition at 10 µM on human KDR enzyme worked out at 91%. Besides, at human FAK, the inhibition at 10 µM worked out at 67%. On Aurora2 kinase, the inhibition at 10 µM amounted to 100%.

In the case of `O=[N+]([O-])c1cccc(S(=O)(=O)Nc2ccc3[nH]nc(-c4ccccc4)c3c2)c1` [Example 97, 3-Nitro-N-(3-phenyl-1H-indazol-5-yl)benzenesulfonamide], the melting point is 228 °C. Also, the “SRC % inhib at 10 μM” value in the series with c-Src protein is reported as 76%. The inhibition at 10 µM on human KDR enzyme was found to be 96%. For the same compound, on human FAK, the inhibition at 10 µM is 50%. Further, the inhibition at 10 µM at Aurora2 kinase turned out to be 93%.

As for `Nc1cccc(S(=O)(=O)Nc2ccc3[nH]nc(-c4ccccc4)c3c2)c1` [Example 98, 3-Amino-N-(3-phenyl-1H-indazol-5-yl)benzenesulfonamide], the “SRC % inhib at 10 μM” value with c-Src protein is given as 78%. Further, the inhibition at 10 µM amounted to 91% on human KDR enzyme, 53% at human FAK and 94% at Aurora2 kinase.

On to `O=S(=O)(Nc1ccc2[nH]nc(-c3ccccc3)c2c1)c1cccc(C(F)(F)F)c1` [Example 130, 3-Trifluoromethyl-N-(3-phenyl-1H-indazol-5-yl)-benzenesulfonamide], for which, in the series with c-Src protein, the “SRC % inhib at 10 μM” value turned out to be 18%. Moreover, the inhibition at 10 µM on human KDR enzyme is 94%; at human FAK, 26%; on Aurora2 kinase, 69%.

On to `O=S(=O)(Nc1ccc2[nH]nc(-c3ccccc3)c2c1)c1cccc(Cl)c1` [Example 136, 3-Chloro-N-(3-phenyl-1H-indazol-5-yl)-benzenesulfonamide], for which, in the series on c-Src protein, the “SRC % inhib at 10 μM” value is on record as 62%. The figures for the inhibition at 10 µM on human KDR enzyme, on human FAK and at Aurora2 kinase were 98%, 59% and 85%, respectively.

For the compound `O=S(=O)(Nc1ccc2[nH]nc(-c3ccccc3)c2c1)c1cc(Cl)cc(Cl)c1` [Example 137, 3,5-Dichloro-N-(3-phenyl-1H-indazol-5-yl)-benzenesulfonamide], the “SRC % inhib at 10 μM” value in the series on c-Src protein was found to be 59%. The inhibition at 10 µM was found to be 96% on human KDR enzyme, 53% at human FAK and 80% on Aurora2 kinase.

As for `O=S(=O)(Nc1ccc2[nH]nc(-c3ccccc3)c2c1)c1ccccc1Br` [Example 139, 2-Bromo-N-(3-phenyl-1H-indazol-5-yl)-benzenesulfonamide], the “SRC % inhib at 10 μM” value with c-Src protein is listed as 51%. Also, the inhibition at 10 µM on human KDR enzyme turned out to be 96%; on human FAK, 53%; at Aurora2 kinase, 96%.

Consider `O=S(=O)(Nc1ccc2[nH]nc(-c3ccccc3)c2c1)c1cccc(Br)c1` [Example 141, 3-Bromo-N-(3-phenyl-1H-indazol-5-yl)-benzenesulfonamide], for which, in the series on c-Src protein, the “SRC % inhib at 10 μM” value was found to be 43%. Besides, the results for the inhibition at 10 µM at human KDR enzyme, at human FAK and on Aurora2 kinase were 97%, 38% and 80%, respectively.

Take `CCCCN(CCCC)c1cccc2c(S(=O)(=O)Nc3ccc4[nH]nc(-c5ccccc5)c4c3)cccc12` [Example 147, 5-Dibutylamino-N-(3-phenyl-1H-indazol-5-yl)naphthalene-1-sulfonamide]: in the series on c-Src protein, the “SRC % inhib at 10 μM” value was determined as 88%. The inhibition at 10 µM worked out at 96% at human KDR enzyme, 0% on human FAK and 86% at Aurora2 kinase.

Consider `COc1cc(S(=O)(=O)Nc2ccc3[nH]ncc3c2)cc(OC)c1OC` [N-(1H-indazol-5-yl)-3,4,5-trimethoxybenzenesulfonamide], for which the growth inhibition was 47.6% in the series with HCT-15 cells and 18.5% in the series on NCI-H460 cells.
